target: T1, p53 Y220C (Homo sapiens, UniProt P04637, Y220C); test: In vitro DNA binding activity assay (HTRF / TR-FRET): stabilization of p53 Y220C and increase of its DNA binding activity; type: biochemical; conditions: recombinant His-tagged p53 Y220C DNA binding domain (aa 94-312), biotin-labeled consensus DNA, incubated at 27° C. or 29° C. for 60 min
T1 construct: The recombinant protein was a truncation mutant containing only amino acids 94-312 of p53; made in house; host or cells: E. coli
Procedure, shortened: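 Homogeneous time-resolved fluorescence with E. coli-derived p53 Y220C and biotinylated consensus DNA. Room-temperature incubations of 15 and 20 min precede reading. SC150 denotes the compound concentration required for 50% increased DNA binding.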

T1 sequence (P04637 94-312, change not shown): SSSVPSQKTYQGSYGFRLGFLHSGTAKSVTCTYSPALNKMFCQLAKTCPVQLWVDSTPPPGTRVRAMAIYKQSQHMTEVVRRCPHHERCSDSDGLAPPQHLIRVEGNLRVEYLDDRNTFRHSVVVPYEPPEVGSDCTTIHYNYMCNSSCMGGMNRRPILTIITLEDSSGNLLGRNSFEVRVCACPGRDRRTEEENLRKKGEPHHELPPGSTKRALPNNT

Row | SMILES | SC150 (concentration of the compound required to increase the DNA binding activity by 50%)
1 | CNC(=O)c1ccc(NCC#Cc2cc3c(N[C@H]4CC[C@H](N5CCC6(CCOCC6)CC5)CC4)cccc3n2CC(F)(F)F)c(OC)c1 [Compound 416A, 3-methoxy-N-methyl-4-{[3-(4-{[(1R,4R)-4-{3-oxa-9-azaspiro[5.5]undecan-9-yl}cyclohexyl]amino}-1-(2,2,2-trifluoroethyl)-1H-indol-2-yl)prop-2-yn-1-yl]amino}benzamide] | + (+ = 0 μM ≤ SC150 < 0.05 μM)
2 | COc1cc(S(C)(=O)=O)ccc1NCC#Cc1cc2c(N[C@H]3CC[C@@H](N4CC5(COC5)C4)CC3)cccc2n1CC(F)(F)F [Compound 203A, 2-{3-[(4-methanesulfonyl-2-methoxyphenyl)amino]prop-1-yn-1-yl}-N-[(1S,4S)-4-{2-oxa-6-azaspiro[3.3]heptan-6-yl}cyclohexyl]-1-(2,2,2-trifluoroethyl)-1H-indol-4-amine] | + (+ = 0 μM ≤ SC150 < 0.05 μM)
3 | COc1cc(C(=O)N(C)C)ncc1NCC#Cc1cc2c(N[C@@H]3CCN(C)C[C@@H]3F)cccc2n1CC(F)(F)F [Compound 1064A, 5-{[3-(4-{[(3S,4R)-3-fluoro-1-methylpiperidin-4-yl]amino}-1-(2,2,2-trifluoroethyl)-1H-indol-2-yl)prop-2-yn-1-yl]amino}-4-methoxy-N,N-dimethylpyridine-2-carboxamide] | + (+ = 0 μM ≤ SC150 < 0.05 μM)
4 | COc1cc(S(N)(=O)=O)ccc1NCC#Cc1cc2c(NC3CCN(C(=O)C(C)O)CC3)cccc2n1CC(F)(F)F (stereo not shown) [Compound 745A] | + (+ = 0 μM ≤ SC150 < 0.05 μM)
5 | CNC(=O)c1ccc(NCC#Cc2cc3c(N[C@@H]4CCNC[C@@H]4F)cccc3n2CC(F)(F)F)c(OC)c1 [Compound 857A] | + (+ = 0 μM ≤ SC150 < 0.05 μM)
6 | CNC(=O)c1cc(OC)c(NCC#Cc2cc3c(N[C@H]4CC[C@H](N5CC6(COC6)C5)CC4)cccc3n2CC(F)(F)F)cc1F [Compound 275A, 2-fluoro-5-methoxy-N-methyl-4-{[3-(4-{[(1R,4R)-4-{2-oxa-6-azaspiro[3.3]heptan-6-yl}cyclohexyl]amino}-1-(2,2,2-trifluoroethyl)-1H-indol-2-yl)prop-2-yn-1-yl]amino}benzamide] | + (+ = 0 μM ≤ SC150 < 0.05 μM)
7 | COc1cc(S(=O)(=O)N2CCOCC2)ccc1NCC#Cc1cc2c(NC3CCOCC3)cccc2n1CC(F)(F)F [Compound 1002A, 2-(3-{[2-methoxy-4-(morpholine-4-sulfonyl)phenyl]amino}prop-1-yn-1-yl)-N-(oxan-4-yl)-1-(2,2,2-trifluoroethyl)-1H-indol-4-amine] | + (+ = 0 μM ≤ SC150 < 0.05 μM)
8 | COc1cc(S(C)(=O)=O)ccc1NCC#Cc1cc2c(NC(=O)NC3CCN(CC(N)=O)CC3)cccc2n1CC(F)(F)F [Compound 16A, 2-(4-{[(2-{3-[(4-methanesulfonyl-2-methoxyphenyl)amino]prop-1-yn-1-yl}-1-(2,2,2-trifluoroethyl)-1H-indol-4-yl)carbamoyl]amino}piperidin-1-yl)acetamide] | ++++ (++++ = 0.2 μM ≤ SC150 < 1 μM)
9 | CNC(=O)c1ccc(NCC#Cc2cc3c(NC4CCN(CC5COC(=O)O5)CC4)cccc3n2CC(F)(F)F)c(OC)c1 (stereo not shown) [Compound 762A, 3-methoxy-N-methyl-4-({3-[4-({1-[(2-oxo-1,3-dioxolan-4-yl)methyl]piperidin-4-yl}amino)-1-(2,2,2-trifluoroethyl)-1H-indol-2-yl]prop-2-yn-1-yl}amino)benzamide] | + (+ = 0 μM ≤ SC150 < 0.05 μM)
10 | COc1cc(S(C)(=O)=O)ccc1NCC#Cc1cc2c(N[C@H]3CCN(CC(=O)NCCN(Cc4ccccn4)Cc4ccccn4)C[C@H]3F)cccc2n1CC(F)(F)F (racemic) [Compound 891A, rac-N-(2-{bis[(pyridin-2-yl)methyl]amino}ethyl)-2-[(3R,4S)-3-fluoro-4-[(2-{3-[(4-methanesulfonyl-2-methoxyphenyl)amino]prop-1-yn-1-yl}-1-(2,2,2-trifluoroethyl)-1H-indol-4-yl)amino]piperidin-1-yl]acetamide] | + (+ = 0 μM ≤ SC150 < 0.05 μM)
11 | CNC(=O)c1ccc(NCC#Cc2cc3c(N[C@H]4CC[C@H](N5CCC6(CCO6)CC5)CC4)cccc3n2CC(F)(F)F)c(OC)c1 [Compound 385A, 3-methoxy-N-methyl-4-{[3-(4-{[(1R,4R)-4-{1-oxa-7-azaspiro[3.5]nonan-7-yl}cyclohexyl]amino}-1-(2,2,2-trifluoroethyl)-1H-indol-2-yl)prop-2-yn-1-yl]amino}benzamide] | + (+ = 0 μM ≤ SC150 < 0.05 μM)
12 | COc1cc(S(=O)(=O)CCO)ccc1NCC#Cc1cc2c(N[C@@H]3CCN(C)C[C@@H]3F)cccc2n1CC(F)(F)F [Compound 939A, 2-(4-{[3-(4-{[(3S,4R)-3-fluoro-1-methylpiperidin-4-yl]amino}-1-(2,2,2-trifluoroethyl)-1H-indol-2-yl)prop-2-yn-1-yl]amino}-3-methoxybenzenesulfonyl)ethan-1-ol] | + (+ = 0 μM ≤ SC150 < 0.05 μM)
13 | COc1cc(C(N)=O)ccc1NCC#Cc1cc2c(N[C@@H]3CCN(C)C[C@@H]3F)cccc2n1CC(F)(F)F [Compound 800A, 4-{[3-(4-{[(3S,4R)-3-fluoro-1-methylpiperidin-4-yl]amino}-1-(2,2,2-trifluoroethyl)-1H-indol-2-yl)prop-2-yn-1-yl]amino}-3-methoxybenzamide] | + (+ = 0 μM ≤ SC150 < 0.05 μM)
14 | COc1cc(C(=O)N2CC3(CCOCC3)C2)ccc1NCC#Cc1cc2c(NC3CCN(C)CC3)cccc2n1CC(F)(F)F [Compound 511A, 2-{3-[(2-methoxy-4-{7-oxa-2-azaspiro[3.5]nonane-2-carbonyl}phenyl)amino]prop-1-yn-1-yl}-N-(1-methylpiperidin-4-yl)-1-(2,2,2-trifluoroethyl)-1H-indol-4-amine] | + (+ = 0 μM ≤ SC150 < 0.05 μM)
15 | COc1cc(C(=O)NCC(=O)O)ccc1NCC#Cc1cc2c(N[C@@H]3CCN(C)C[C@@H]3F)cccc2n1CC(F)(F)F [Compound 896A, (4-((3-(4-(((3S,4R)-3-fluoro-1-methylpiperidin-4-yl)amino)-1-(2,2,2-trifluoroethyl)-1H-indol-2-yl)prop-2-yn-1-yl)amino)-3-methoxybenzoyl)glycine] | + (+ = 0 μM ≤ SC150 < 0.05 μM)
16 | COc1cc(S(=O)(=O)NC2CCOCC2)ccc1NCC#Cc1cc2c(NC3CCS(=O)(=O)CC3)cccc2n1CC(F)(F)F [Compound 1041A, 4-[(3-{4-[(1,1-dioxo-1λ^6-thian-4-yl)amino]-1-(2,2,2-trifluoroethyl)-1H-indol-2-yl}prop-2-yn-1-yl)amino]-3-methoxy-N-(oxan-4-yl)benzene-1-sulfonamide] | + (+ = 0 μM ≤ SC150 < 0.05 μM)
17 | COc1cc(S(C)(=O)=O)ccc1NCC#Cc1cc2c(NC3CCN(CC(O)COCC(O)CO)CC3)cccc2n1CC(F)(F)F (stereo not shown) [Compound 669A, 3-(2-hydroxy-3-{4-[(2-{3-[(4-methanesulfonyl-2-methoxyphenyl)amino]prop-1-yn-1-yl}-1-(2,2,2-trifluoroethyl)-1H-indol-4-yl)amino]piperidin-1-yl}propoxy)propane-1,2-diol] | + (+ = 0 μM ≤ SC150 < 0.05 μM)
18 | COc1cc(S(=O)(=O)N(CCO)CCO)ccc1NCC#Cc1cc2c(N[C@H]3CC[C@H](N(C)C)CC3)cccc2n1CC(F)(F)F [Compound 70A, N,N-bis(2-hydroxyethyl)-3-methoxy-4-{[3-(4-{[(1R,4R)-4-(dimethyl-amino)cyclohexyl]amino}-1-(2,2,2-trifluoroethyl)-1H-indol-2-yl)prop-2-yn-1-yl]amino}benzene-1-sulfonamide] | + (+ = 0 μM ≤ SC150 < 0.05 μM)
19 | COc1cc(Cl)ccc1NCC#Cc1cc2c(N[C@H]3CC[C@H](N(C)C)CC3)cccc2n1CC(F)(F)F [Compound 130A, (1R,4R)—N^4-(2-{3-[(4-chloro-2-methoxyphenyl)amino]prop-1-yn-1-yl}-1-(2,2,2-trifluoroethyl)-1H-indol-4-yl)-N^1,N^1-dimethylcyclohexane-1,4-diamine] | + (+ = 0 μM ≤ SC150 < 0.05 μM)
20 | COCCN(C)[C@H]1CC[C@@H](Nc2cccc3c2cc(C#CCNc2ccc(S(C)(=O)=O)cc2OC)n3CC(F)(F)F)CC1 [Compound 56A, (1S,4S)-N^4-(2-{3-[(4-methanesulfonyl-2-methoxyphenyl)amino]prop-1-yn-1-yl}-1-(2,2,2-trifluoroethyl)-1H-indol-4-yl)-N^1-(2-methoxyethyl)-N^1-methylcyclohexane-1,4-diamine] | + (+ = 0 μM ≤ SC150 < 0.05 μM)
21 | COc1cc(S(=O)(=O)N2CCOCC2)ccc1NCC#Cc1cc2c(NC3CCN(CC(O)CO)CC3)cccc2n1CC(F)(F)F (stereo not shown) [Compound 582A, 3-(4-{[2-(3-{[2-methoxy-4-(morpholine-4-sulfonyl)phenyl]amino}prop-1-yn-1-yl)-1-(2,2,2-trifluoroethyl)-1H-indol-4-yl]amino}piperidin-1-yl)propane-1,2-diol] | + (+ = 0 μM ≤ SC150 < 0.05 μM)
22 | CCC(=O)NS(=O)(=O)c1ccc(NCC#Cc2cc3c(N[C@H]4CC[C@@H](N5CC6(COC6)C5)CC4)cccc3n2CC(F)(F)F)c(OC)c1 [Compound 207A, N-(3-methoxy-4-{[3-(4-{[(1S,4S)-4-{2-oxa-6-azaspiro[3.3]heptan-6-yl}cyclo-hexyl]amino}-1-(2,2,2-trifluoroethyl)-1H-indol-2-yl)prop-2-yn-1-yl]amino}benzene-sulfonyl)propanamide] | + (+ = 0 μM ≤ SC150 < 0.05 μM)

From patent US12428406B2 (PMV Pharmaceuticals, Inc., priority 2019, dated 2025)
